Data as given in publication PMC6934184, “Selective DNA-PKcs inhibition extends the therapeutic index of localized radiotherapy and chemotherapy” (The Journal of Clinical Investigation, 2019).

Target: T1, CDK2/cyclin A1 (Homo sapiens, UniProt P24941)
T1 construct: purchased Thermo Fisher Scientific (Life Technologies) SelectScreen
Experiment: SelectScreen LanthaScreen
Assay type: binding
Conditions: 1 µM
Method in brief: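 SelectScreen broad panel; activity (Z'LYTE, Adapta) plus binding formats. ATP: Km app for CSF1R Z'LYTE; 10 for CAMK1 Adapta. Readout = % per kinase.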

CN(C(=O)CN1CCOCC1)c1ccc2sc3c(-c4cccc5c(=O)cc(N6CC7CCC(C6)O7)oc45)cccc3c2c1 [NU5455]
% displacement: -1.6%
